Tests used:
[1] = test system: enzyme having fructose transferase activity derived from a Scopulariopsis microorganism; experiment: Properties of the novel Scopulariopsis enzyme: substrate specificity, inhibition, kinetics; type: biochemical, Scopulariopsis brevicaulis
Method: In the case of an enzyme derived from a Scopulariopsis microorganism, the quantity of enzyme which can produce 1 μmol of 1-kestose in 1 minute at 40° C., pH 7.0, and a substrate (sucrose) concentration of 10 wt %.
The enzyme is prepared from a Scopulariopsis microorganism, preferably from Scopulariopsis brevicaulis, specifically Scopulariopsis brevicaulis IF04843 strain.
The enzyme can be recovered from a culture by incubating the microorganism in a suitable medium (e.g., a medium containing 3.0 to 10.0% of sucrose, 5 to 15% of corn steep liquor, 0.05 to 0.3% of urea, 0.2 to 3.0 of potassium dihydrogenphosphate, and 0.01 to 0.1% of magnesium sulfate heptahydrate), at initial pH of 6.5 to 7.5 and a temperature of 20 to 30° C. for 3 to 8 days. The enzyme is prepared preferably by recovering the fungus body from the culture using a centrifuge such as a basket type; suspending the recovered fungus body in a buffer at pH 7.0; obtaining a crude enzyme suspension by an ultrasonic treatment and a membrane treatment; then treating with anion exchange, gel filtration, chromatographic focusing, or other procedure on the crude enzyme suspension.
The freeze-dried fungus body powder prepared above was suspended in a McIlvaine buffer (pH 7.0), and ultrasonically crushed. The crushed cells were ultrafiltrated through a membrane filter (cutoff molecular weight: 100,000).

[2] = test system: enzyme having fructose transferase activity derived from a Penicillium microorganism; experiment: Properties of the novel Penicillium enzyme: substrate specificity, inhibition, kinetics; type: biochemical, Penicillium roqueforti
Method: In the case of an enzyme derived from a Penicillium microorganism, the quantity of enzyme which can produce 1 μmol of 1-kestose in 1 minute at 50° C., pH 7.0, and a substrate (sucrose) concentration of 10 wt %; and The enzyme is prepared from a Penicillium microorganism, preferably from Penicillium roqueforti, specifically Penicillium roqueforti IAM7254 strain. The enzyme can be recovered from a culture by incubating the microorganism in a suitable medium (e.g., a medium containing 5 to 30% of sucrose, 1 to 10% of corn steep liquor, 0.05 to 0.3% of urea, 0.2 to 3.0 of potassium dihydrogenphosphate, and 0.01 to 0.1% of magnesium sulfate heptahydrate), at initial pH of 6.5 to 7.5 and a temperature of 25 to 30° C. for 2 to 5 days.

[3] = Decomposition of 1-kestose in the decolorizing and desalting procedure; type: physicochemical; conditions: activated carbon at 60° C. for 20 minutes, cation and anion exchange resin
Method: (§1) The deactivated solution was filtered to remove any impurities such as the fungus body and the activated carbon. Then, activated carbon (Taiko activated carbon S-W50) was added to the filtrate at a rate of 0.5% of the solids content, and stirred at a temperature of 60° C. for 20 minutes to decolorize again. After filtrating to remove the activated carbon in the same manner as above, the solution was desalted through cation and anion exchange resin, then filtrated again to make a colorless and transparent 1-kestose solution (chromatographic sample).
as §1, with “per” for “of the”
The deactivated solution was filtered to remove any impurities such as the fungus body and the activated carbon. […]

SMILES	Substrate specificity (enzyme acts on sugar) [1]	Substrate specificity (enzyme acts on sugar) [2]	decomposition of 1-kestose [3]
OC[C@H]1O[C@@](CO)(O[C@H]2O[C@H](CO)[C@@H](O)[C@H](O)[C@H]2O)[C@@H](O)[C@@H]1O [sucrose]	effectively acts on	effectively acts on	–
OC[C@H]1O[C@H](OC[C@H]2O[C@H](O[C@]3(CO)O[C@H](CO)[C@@H](O)[C@@H]3O)[C@H](O)[C@@H](O)[C@@H]2O)[C@H](O)[C@@H](O)[C@H]1O [raffinose]	effectively acts on	effectively acts on	–
OC[C@H]1O[C@@](CO)(OC[C@@]2(O[C@H]3O[C@H](CO)[C@@H](O)[C@H](O)[C@H]3O)O[C@H](CO)[C@@H](O)[C@@H]2O)[C@@H](O)[C@@H]1O [Example 1-kestose, 1-kestose]	effectively acts on	effectively acts on	hardly observed
O=C(CO)[C@@H](O[C@H]1O[C@H](CO)[C@@H](O)[C@H](O)[C@H]1O)[C@H](O)[C@H](O)CO [turanose]	not on	not on	–
OC[C@H]1O[C@H](O[C@H]2[C@H](O)[C@@H](O)C(O)O[C@@H]2CO)[C@H](O)[C@@H](O)[C@@H]1O (mixture of isomers) [maltose]	not on	not on	–

From US6479657B1, “Crystalline 1-kestose and process for preparing the same” (Meiji Seika Kaisha, Ltd., priority 1995, dated 2002)
